Results on 32 compounds are retold here after PMC12040169 (PLOS Biology, 2025).

This data set can be described thus: in vitro. As to conditions: human, hela cells, % viability.

`CC(C)Cn1c(=O)[nH]c2ncc(-c3ccco3)nc21` [CBK064353]: the viability at 28.5 h, 10 µM stood at 91.9%. Then `c1ccc(CN2C[C@H]3CCc4c[nH]nc4[C@H]3C2)nc1` [CBK282108], with 87%; and `Cn1cc(-c2nccnc2OCCn2cccc2)cn1` [CBK107079], with 88.6%; and `Cc1ncc2c(n1)CCCC2NC(=O)c1ccccc1Cn1cncn1` (centres unmarked) [CBK306381], with 100%.

On to `O=C(O)c1cccc(OCCNS(=O)(=O)c2ccc(N3CCCC3=O)cc2)c1` [CBK299779], for which the viability at 28.5 h, 10 µM was determined as 97.3%.

For `CC(=O)Nc1cccc(CNC(=O)c2cccnc2OCC(F)(F)F)c1` [CBK304557], the viability at 28.5 h, 10 µM is 87.2%.

With `Cc1ccc(OCC(=O)Nc2ccc3c(c2)C(=O)Nc2ccccc2O3)cc1` [CBK287660], the viability at 28.5 h, 10 µM came to 88.2%.

`CC(=O)NCCn1cc2c(n1)[C@H]1CN(C(=O)C3CCC3)C[C@H]1CC2` [CBK284584]: the viability at 28.5 h, 10 µM came to 107%. In the case of `CCN(CC)CCn1c(-c2ccccc2)c(OCCO)c2ccccc2c1=O` [CBK010078], the viability at 28.5 h, 10 µM was 96.9%.

Turning to `Cc1ccc(NC(=O)CC(C(=O)O)N(C)C)cc1` (centres unmarked) [CBK267068], the viability at 28.5 h, 10 µM is 81.7%. As to `Clc1ccc(COc2cc(N3CCCN(CC4CC4)CC3)ncn2)cc1Cl` [CBK084070], the viability at 28.5 h, 10 µM stood at 90.8%.

Turning to `Cn1c(CNC(=O)c2ncoc2-c2cccs2)nc2ccccc21` [CBK283985], the viability at 28.5 h, 10 µM was determined as 78.6%. Regarding `O=S(=O)(NCCCN1CCN(Cc2ccccc2)CC1)c1cccc(Cl)c1Cl` [CBK074655], the viability at 28.5 h, 10 µM was found to be 114%.

As to `Cc1ccc2nc(COC(=O)c3cc(-c4ccccc4)nn3-c3ccccc3)cc(=O)n2c1` [CBK296959], the viability at 28.5 h, 10 µM was 89.8%.

As for `OCCn1ncc2c(NCc3nncn3-c3ccccc3)ncnc21` [CBK304608], the viability at 28.5 h, 10 µM is 98.5%. With `O=C(c1ccccc1)N1C[C@@H](c2ccsc2)[C@@H]2CN(Cc3ccccc3)CC[C@@H]21` [CBK285602], the viability at 28.5 h, 10 µM came out at 104%.

For the compound `CC(C)CC(=O)N1C[C@H]2NC(=O)c3ccccc3C(=O)[C@@]2(C)C1` [CBK281659], the viability at 28.5 h, 10 µM came out at 96.1%. As to `CN(CC(=O)O)C(=O)c1ccc(S(=O)(=O)N2CCCCC2)cc1` [CBK265715], the viability at 28.5 h, 10 µM stood at 112%. As to `CSCC[C@@H]1CN2CCC[C@H]2CN1Cc1cnc(C)n1C` [CBK285423], the viability at 28.5 h, 10 µM is 109%. As for `C=CCNC(=O)c1ccc(-c2cccc(N(C)C)c2)nc1NCc1cccnc1` [CBK076566], the viability at 28.5 h, 10 µM is 91.3%. Consider `COc1cc(-c2nccnc2N[C@@H]2CCN(Cc3ccccc3)C2)cc(OC)c1OC` [CBK037651], for which the viability at 28.5 h, 10 µM was 96.7%. For `O=C(CN1CCN(Cc2ccc3c(c2)OCO3)CC1)Nc1ccc(Oc2ccccc2)cc1` [CBK265864], the viability at 28.5 h, 10 µM turned out to be 94%.

For the compound `O=C(Nc1nc2ccc(Cl)cc2s1)c1nc(SCc2ccccc2)ncc1Cl` [CBK268825], the viability at 28.5 h, 10 µM is 98.2%. With `CC(C)[C@@H](CO)Nc1cc(Cl)nc2ccnn12` [CBK037242] the figure was 96.2%; with `CCOc1ccc(-c2ccnc(NCCNC(C)=O)n2)cc1C(=O)O` [CBK306898], 85.1%; with `Cc1ccc(OCC(=O)Nc2ccccc2CO)cc1` [CBK263600], 88.7%.

Take `O=C(C1CCN(Cc2ccc(F)cc2)CC1)N1CCN(C/C=C/c2ccccc2)CC1` [CBK264325G]: the viability at 28.5 h, 10 µM was found to be 96.5%. Consider `CN(C)C[C@@H]1Cc2cccc3cccc(c23)[C@@H]1O` [CBK005877C], for which the viability at 28.5 h, 10 µM is 111%. Then `COc1ccccc1-c1nc(C2CCCN(C(=O)NCCc3cccs3)C2)n2ccccc12` (centres unmarked) [CBK047163], with 95.5%; and `CN1CCN(CC(=O)C(C#N)c2ccccc2)CC1` (centres unmarked) [CBK269270], with 87.7%.

In the case of `O=C1CC2(CCC3C(C(=O)N4CCCC4)C32)Oc2ccccc21` (centres unmarked) [CBK284969], the viability at 28.5 h, 10 µM was 104%. Then `OC[C@H]1O[C@@H](n2cnc3cncnc32)C[C@H]1O` [CBK201243], with 113%.
